Experimental findings from PMC4957513, “Functional Characterization of a Hexose Transporter from Root Endophyte Piriformospora indica” (Frontiers in Microbiology, 2016) are described below.

In test [1] the target is T1, PiHXT5 (Serendipita indica, UniProt G4TIR7).
T1 construct: gene PIIN_05137
Description: competition of […]-glucose uptake in yeast EBY.VW4000. The format is cell-based. The following applies: 25 μM 14C-glucose, five-fold excess of unlabelled sugar, 1 min, 30 °C; intact cells.

For test [2], the target named is T1, PiHXT5. Description: […]-glucose uptake in yeast EBY.VW4000, Michaelis-Menten fit. The settings on record: pH 6.5, 50 mM potassium phosphate, 0.6 M sorbitol; intact cells; labelled compound; H+ symport; read-out: apparent Km. The test is classed as cell-based.

Molecules are shown by their SMILES.

T1 sequence (G4TIR7 entry or part of it): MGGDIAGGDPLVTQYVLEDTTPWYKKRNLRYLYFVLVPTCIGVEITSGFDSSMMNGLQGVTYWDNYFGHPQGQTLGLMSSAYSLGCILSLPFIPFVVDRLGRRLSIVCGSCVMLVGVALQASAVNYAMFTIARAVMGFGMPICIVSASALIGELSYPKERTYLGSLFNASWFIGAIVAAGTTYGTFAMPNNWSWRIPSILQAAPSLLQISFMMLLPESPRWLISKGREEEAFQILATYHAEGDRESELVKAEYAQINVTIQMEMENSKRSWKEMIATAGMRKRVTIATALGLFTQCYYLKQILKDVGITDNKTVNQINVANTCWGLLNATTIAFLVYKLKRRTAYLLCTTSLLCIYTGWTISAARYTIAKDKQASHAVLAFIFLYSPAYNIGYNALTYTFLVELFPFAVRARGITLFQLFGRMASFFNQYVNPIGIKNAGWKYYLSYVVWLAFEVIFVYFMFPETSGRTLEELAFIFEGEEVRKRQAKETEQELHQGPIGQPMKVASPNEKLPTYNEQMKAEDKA

Regarding `OC[C@H]1OC(O)[C@H](O)[C@@H](O)[C@H]1O` (stereo partly drawn) [D-galactose], the “% of control 14C-glucose uptake at five-fold excess” value at PiHXT5 [1] was “PiHXT5 is able to transport Glc, Fru, Xyl, Man, and Gal with decreasing affinity”.
Same read-out and setting: the result for `OCC1(O)OC[C@@H](O)[C@@H](O)[C@@H]1O` (stereo partly drawn) [D-fructose] reads “PiHXT5 is able to transport Glc, Fru, Xyl, Man, and Gal with decreasing affinity”.
As to `OC[C@H]1OC(O)[C@H](O)[C@@H](O)[C@@H]1O` (stereo partly drawn) [D-glucose], on PiHXT5 [2], the Michaelis-Menten constant (Km) was 2560 ± 180 µM.
In the case of `OC[C@H]1OC(O)[C@@H](O)[C@@H](O)[C@@H]1O` (stereo partly drawn) [D-mannose], the “% of control 14C-glucose uptake at five-fold excess” value on PiHXT5 [1] was “PiHXT5 is able to transport Glc, Fru, Xyl, Man, and Gal with decreasing affinity”.
On the same count and under the same terms, the result for `OC1OC[C@@H](O)[C@H](O)[C@H]1O` (stereo partly drawn) [D-xylose] reads “PiHXT5 is able to transport Glc, Fru, Xyl, Man, and Gal with decreasing affinity”.

In general, Km refers to the concentration of substrate that gives half-maximal velocity.
